Assay results published in patent publication US20070208074A1, “Methods and compositions for treating and preventing tumors” (priority 2006, published 2007).

Columns and labels:
[1] = test system: control neuroblastoma cell line SK-N-MC; experiment: LIF-induced STAT3 tyrosine phosphorylation, immunoblot; assay type: cell-based; conditions: serum starved 24 hours, 10 ng/ml LIF for 15 minutes
[2] = test system: PTEN-deficient glioma cells (U87, A172, and U138); experiment: as above; assay type: cell-based, human; conditions: serum starved 24 hours, 10 ng/ml LIF for 15 minutes
Protocol: (§1) FIG. 2A is a series of immunoblots showing the levels of PYS3 and STAT3 in glioma cells that harbor PTEN mutations (U87, A172, and U138) or that express wild type PTEN (SF188 and LN229) with the STAT3 and PYS3 antibodies. Cells were serum starved for 24 hours and then treated with 100 ng/ml CNTF (C) or 10 ng/ml LIF (L) for 15 minutes.
(§2) The inhibition of the STAT3 signaling pathway was also evident in human glioma cell lines that harbor PTEN mutations.

[3] = test system: wild type PTEN-expressing glioma cells (SF188 and LN229); experiment: as above; assay type: cell-based, human; conditions: serum starved 24 hours, 10 ng/ml LIF for 15 minutes
Protocol: as §1, §2

[4] = test system: SF188 cells; experiment: Growth curve / population growth with LIF; assay type: cell-based, human
Protocol: (§3) FIG. 2B is a series of graphs showing growth curves of PTEN-mutant glioma cell lines (U87 and A172) and PTEN-expressing (SF188) glioma cells lines that were treated with LIF (10 ng/ml daily) or left untreated.
FIG. 2C is a bar graph showing the population growth of SF188 cells infected with a retrovirus containing an IRES-GFP cassette alone or that also encodes wild type STAT3 or a dominant negative STAT3 (S3D).

[5] = test system: A172 cells; experiment: Growth curve with LIF; assay type: cell-based, human; conditions: LIF 10 ng/ml daily; PTEN-deficient cell line
Protocol: as §3

[6] = test system: U87 cells; experiment: Growth curve with LIF; assay type: cell-based, human; conditions: LIF 10 ng/ml daily; PTEN-deficient cell line
Protocol: as §3

[7] = test system: LN229 cells; experiment: Population growth with LIF after lentiviral infection; assay type: cell-based, human; conditions: LIF 10 ng/ml daily; control lentivirus-infected LN229; n=3, p<0.05
Text: FIG. 2D is a pair of immmunoblots showing STAT3 and actin levels in 293T cells infected with either control lentivirus or lentivirus encoding one of two small interfering hairpin RNAs directed at STAT3 and selected with puromycin (left panel). […] The right panel is a graph showing population growth of LN229 cells infected with control lentivirus or lentivirus encoding stat3i1 or stat3i2 and selected with puromycin.
Recombinant retroviruses were made by transfecting 293T cells with pMD.MLV gag.pol, pHDM.G (VSVG pseudotype), and the transfer plasmid (i.e. pBABE). Cells were infected with equal amounts of retroviruses in the presence of 8 μg/ml polybrene (Sigma). A population of infected cells for each construct was collected by sorting cells for GFP expression. PTEN−/− astrocytes were infected with pBABE or pBABE/S3C retroviruses and infected cells were selected with puromycin (4 μg/ml). PTEN flox/flox astrocytes were infected with MyrAkt and infected cells were selected with 250 μg/ml hygromycin (Invitrogen). Cloning of recombinant lentiviruses coding for a short hairpin RNA directed against STAT3 or human IL-8 was carried out using the pLL3.7 vector. […]

[8] = test system: rat neural stem cells; experiment: BrdU incorporation with LIF; assay type: cell-based; conditions: LIF 10 ng/ml, 48 hrs; vector-infected cells vs no treatment; n=3, p<0.05
Protocol: FIG. 2E (right panel) is a bar graph showing BrdU incorporation in rat neural stem cells treated with LIF (10 ng/ml, 48 hrs) following infection with lentivirus and selection with puromycin.

[9] = test system: U87-S3C cells; experiment: Cell spreading assay on myelin; assay type: cell-based; conditions: recombinant human IL-8 50 ng/ml vs untreated U87-S3C cells on myelin; n=3, p<0.0005
Protocol: FIG. 4I is a graph quantifying the level of normalized cell spreading. IL-8 addition rescues STAT3 suppression of glioma cell spreading on myelin.
1×10^4 cells were seeded onto glass coverslips pre-coated with polyornithine ([…]) and additionally coated with PBS or 20 μg/ml myelin. Where indicated recombinant human IL-8 (R&D) was added at a concentration of 50 ng/ml. Cells were incubated at 37° C. for 1 hour to attach and then fixed with 4% paraformaldehyde for 20 minutes at RT. Coverslips were stained with phallotoxin for 20 minutes according to the manufacturer's directions (Molecular probes). Nuclei were counterstained with 0.2 μg/ml Hoechst (Sigma). Spread versus unspread cells were counted blind, and a percentage of spread cells over the total number of cells calculated. Pictures were taken at 60× using a Nikon inverted microscope.

Row | Substance | STAT3 tyrosine phosphorylation [1] | STAT3 tyrosine phosphorylation [2] | STAT3 tyrosine phosphorylation [3] | cell population growth ([4]; LIF 10 ng/ml daily vs untreated, n=3, p<0.05) | population growth ([4]; LIF 10 ng/ml daily, SF188 infected with control-vector or wild type STAT3 retrovirus, n=3, p<0.01) | proliferation [5] | proliferation [6] | population growth [7] | BrdU incorporation [8] | cell spreading on myelin [9]
1 | LIF: cytokine ligand of leukemia inhibitory factor receptorβ (LIFRβ), used at 10 ng/ml | robustly induced STAT3 tyrosine phosphorylation | failed to effectively induce the STAT3 phosphorylation | robustly induced STAT3 tyrosine phosphorylation | significantly reduced | significant reduction in population growth | little effect on the proliferation | little effect on the proliferation | significant reduction in growth | significantly less BrdU incorporation | –
2 | IL-8: recombinant human IL-8 (R&D) added at 50 ng/ml | – | – | – | – | – | – | – | – | – | significantly more U87-S3C cells spread on myelin
